Legend:
Type in all cases: cell-based
[1] = system: E. coli DH5α; assay: Antibacterial activity: MIC and growth curve against E. coli DH5α in 96-well plate; details: minimal inhibitory concentration against E. coli DH5α; 96-well plate, 5×10^5 CFU/mL, 37° C., judged after 8 h
Method in brief: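 Log-phase DH5α (OD600 about 0.5, 37° C, 185 rpm in LB) was pelleted, resuspended in fresh LB and seeded at 5×10^5 CFU/mL with recombinant protein at 50, 25 and 12.5 μg/mL (two-fold series), in triplicate. Plates were shaken at 175 rpm, 37° C, and OD600 was read every 30 min. MIC was the lowest concentration with no growth.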

[2] = system: E. coli BL21; assay: MIC against Gram-negative bacteria: E. coli BL21; details: 96-well plate, 5×10^5 CFU/mL, 37° C., 10 h
Method in brief: (§1)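 MIC, the lowest recombinant protein concentration giving no bacterial growth, found by two-fold serial dilution of human EGF-domain proteins in triplicate. Inoculum 5×10^5 CFU/mL in LB from cultures at McFarland 0.5; plates incubated at 37° C, 175 rpm shaking.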

[3] = system: Pseudomonas aeruginosa; assay: MIC against Gram-negative bacteria: Pseudomonas aeruginosa; details: 96-well plate, 5×10^5 CFU/mL, 37° C., 10 h
Method in brief: as §1

[4] = system: Klebsiella pneumonia; assay: MIC against Gram-negative bacteria: Klebsiella pneumonia; details: 96-well plate, 5×10^5 CFU/mL, 37° C., 10 h
Method in brief: as §1

[5] = system: Enterobacter cloacae; assay: MIC against Gram-negative bacteria: Enterobacter cloacae; details: 96-well plate, 5×10^5 CFU/mL, 37° C., 10 h
Method in brief: as §1

[6] = system: Aeromonas hydrophila; assay: MIC against Gram-negative bacteria: Aeromonas hydrophila; details: 96-well plate, 5×10^5 CFU/mL, 37° C., 10 h
Method in brief: as §1

[7] = system: Citrobacter diversus; assay: MIC against Gram-negative bacteria: Citrobacter diversus; details: 96-well plate, 5×10^5 CFU/mL, 37° C., 10 h
Method in brief: as §1

[8] = system: Moraxella catarrhalis; assay: MIC against Gram-negative bacteria: Moraxella catarrhalis; details: 96-well plate, 5×10^5 CFU/mL, 37° C., 10 h
Method in brief: as §1

[9] = system: Proteus mirabilis; assay: MIC against Gram-negative bacteria: Proteus mirabilis; details: 96-well plate, 5×10^5 CFU/mL, 37° C., 10 h
Method in brief: as §1

[10] = system: Proteus vulgaris; assay: MIC against Gram-negative bacteria: Proteus vulgaris; details: 96-well plate, 5×10^5 CFU/mL, 37° C., 10 h
Method in brief: as §1

[11] = system: Serratia marcescens; assay: MIC against Gram-negative bacteria: Serratia marcescens; details: 96-well plate, 5×10^5 CFU/mL, 37° C., 10 h
Method in brief: as §1

Substance | MIC [1] [µg/mL] | MIC E. coli BL21 [2] [µg/mL] | MIC P. aeruginosa [3] [µg/mL] | MIC K. pneumonia [4] [µg/mL] | MIC E. cloacae [5] [µg/mL] | MIC A. hydrophila [6] [µg/mL] | MIC C. diversus [7] [µg/mL] | MIC M. catarrhalis [8] [µg/mL] | MIC P. mirabilis [9] [µg/mL] | MIC P. vulgaris [10] [µg/mL] | MIC S. marcescens [11] [µg/mL]
PRT628 (CTCNQHGTCDPNTGICVCSHHTEGPSCERCLPGFYGNPFAGQADDCQP; listed as Homo sapiens) | 12.5 | 12.5 | 25 | 12.5 | 25 | 12.5 | 25 | 12.5 | 25 | 12.5 | 25
PRT629 (CPCPGQSACTTIPESREVVCTHCPPGQRGRRCEVCDDGFFGDPLGLFGHPQPCHQ; listed as Homo sapiens) | 12.5 | 25 | 12.5 | 25 | 12.5 | 12.5 | 12.5 | 12.5 | 12.5 | 50 | 12.5
PRT630 (CQCSGNVDPNAVGNCDPLSGHCLRCLHNTTGDHCEHCQEGFYGSALAPRPADKCMP; listed as Homo sapiens) | 50 | 25 | 12.5 | 25 | 12.5 | 25 | 12.5 | 25 | 12.5 | 25 | 12.5
PRT631 (CSCHPQGSVSEQMPCDPVTGQCSCLPHVTARDCSRCYPGFFDLQPGRGCRS; listed as Homo sapiens) | 25 | 12.5 | 25 | 12.5 | 25 | 12.5 | 25 | 12.5 | 25 | 12.5 | 25
PRT632 (CKCHPLGSQEDQCHPKTGQCTCRPGVTGQACDRCQLGFFGFSIKGCRA; listed as Homo sapiens) | 12.5 | 25 | 12.5 | 25 | 12.5 | 25 | 50 | 25 | 12.5 | 25 | 50
PRT633 (TKPSCVPPCQNGGMCLRPQLCVCKPGTKGKACE; listed as Homo sapiens) | 12.5 | 50 | 12.5 | 50 | 12.5 | 50 | 12.5 | 50 | 12.5 | 50 | 25
PRT634 (DIDECQHRHLCAHGQCRNTEGSFQCVCDQGYRASGLGDHCE; listed as Homo sapiens) | 12.5 | 25 | 50 | 25 | 12.5 | 25 | 12.5 | 25 | 25 | 12.5 | 25
PRT635 (DINECLEDKSVCQRGDCINTAGSYDCTCPDGFQLDDNKTCQ; listed as Homo sapiens) | 12.5 | 25 | 12.5 | 25 | 12.5 | 25 | 12.5 | 12.5 | 25 | 12.5 | 25
PRT636 (DINECEHPGLCGPQGECLNTEGSFHCVCQQGFSISADGRTCE; listed as Homo sapiens) | 12.5 | 25 | 50 | 25 | 12.5 | 25 | 50 | 25 | 12.5 | 25 | 50
PRT637 (DIDECVNNTVCDSHGFCDNTAGSFRCLCYQGFQAPQDG; listed as Homo sapiens) | 25 | 12.5 | 25 | 50 | 12.5 | 25 | 50 | 25 | 12.5 | 25 | 50
PRT638 (DVNECELLSGVCGEAFCENVEGSFLCVCADENQEYSPMTGQCR; listed as Homo sapiens) | 25 | 12.5 | 50 | 12.5 | 25 | 50 | 25 | 12.5 | 50 | 12.5 | 50
PRT639 (DADECLLFGQEICKNGFCLNTRPGYECYCKQGTYYDPVKLQCF; listed as Homo sapiens) | 12.5 | 50 | 12.5 | 50 | 12.5 | 50 | 25 | 12.5 | 25 | 50 | 25
PRT640 (DMDECQDPSSCIDGQCVNTEGSYNCFCTHPMVLDASE; listed as Homo sapiens) | 12.5 | 25 | 50 | 12.5 | 25 | 50 | 12.5 | 25 | 50 | 12.5 | 25
PRT641 (QAEECGILNGCENGRCVRVQEGYTCDCFDGYHLDTAK; listed as Homo sapiens) | 50 | 25 | 12.5 | 25 | 50 | 25 | 12.5 | 25 | 50 | 12.5 | 50
PRT642 (DVNECDELNNRMSLCKNAKCINTDGSYKCLCLPGYVPSDKPNYCT; listed as Homo sapiens) | 12.5 | 50 | 25 | 12.5 | 25 | 50 | 25 | 12.5 | 25 | 50 | 25
PRT643 (RVVICHLPCMNGGQCSSRDKCQCPPNFTGKLCQ; listed as Homo sapiens) | 12.5 | 25 | 50 | 25 | 12.5 | 25 | 50 | 25 | 12.5 | 25 | 50
PRT644 (DINECQLQGVCPNGECLNTMGSYRCTCKIGFGPDPTFS; listed as Homo sapiens) | 25 | 12.5 | 25 | 50 | 25 | 12.5 | 25 | 50 | 25 | 100 | 25
